Measurements reported in patent publication US20250144067A1, “PERSONALIZED STARVATION THERAPY FOR CANCER” (Faeth Therapeutics, Inc., priority 2021, published 2025).
Like-named read-outs stand apart in the source and are kept apart here.

Key:
[1] = test system: NCI-H292 lung cancer cells; assay: FDA drug screening, complete media vs cholesterol-free media without statin (TABLE 1); assay type: cell-based, human
[2] = test system: NCI-H292 lung cancer cells; assay: FDA drug screening, complete media vs cholesterol-free media with simvastatin (TABLE 2); assay type: cell-based, human
[3] = Complete minus Cholesterol-free, greater than 0 enhanced anti-cancer activity, about 0 neutral, below 0 antagonist
[4] = NCI-H292 cells, FDA drug library screen, cholesterol-free media without statin
[5] = NCI-H292 cells, FDA drug library screen, complete media
[6] = NCI-H292 cells, FDA drug library screen, cholesterol-free media with simvastatin 0.04 μM
[7] = complete media vs cholesterol-free media + simvastatin (0.04 μM), >0 enhanced anti-cancer activity, about 0 neutral, <0 antagonist
[8] = NCI-H292 cells, cholesterol-free media without statin
[9] = complete vs cholesterol-free media, […]
[10] = complete media minus cholesterol-free media + simvastatin, […]
[11] = Complete minus Cholesterol-free, […]
[12] = NCI-H292 cells in cholesterol-free media without statin
[13] = NCI-H292 cells in complete media
[14] = NCI-H292 cells, drug in cholesterol-free media with simvastatin 0.04 μM
[15] = NCI-H292 cells, drug in complete media
[16] = complete media vs cholesterol-free media + simvastatin (0.04 μM), […]
[17] = NCI-H292 cells, cholesterol-free media with simvastatin 0.04 μM, […]
[18] = NCI-H292 cells, cholesterol-free media without statin, FDA drug library screen
[19] = NCI-H292 cells, complete media, FDA drug library screen
[20] = NCI-H292 cells, cholesterol-free media with simvastatin 0.04 μM, FDA drug library screen (TABLE 2)
[21] = NCI-H292 cells, complete media, FDA drug library screen (TABLE 2)
[22] = complete media minus cholesterol-free media + simvastatin (0.04 μM), >0 enhanced anti-cancer activity, about 0 neutral, <0 antagonist
[23] = Complete minus Cholesterol-free, greater than 0 enhanced anti-cancer activity, about 0 neutral, below 0 antagonists

## Oclacitinib (maleate)
[1]; [3]
  Difference: −0.16
[1]; [4]
  Cholesterol-free: 0.7098
[1]; [5]
  Complete: 0.5476
[2]; [6]
  Cholesterol-free media + simvastatin (0.04 μM): 0.9891
[2]; [5]
  Complete Media: 0.8445
[2]; [7]
  Difference: −0.14

## Octreotide (acetate)
[1]; [8]
  Cholesterol-free: 1.157
[1]; NCI-H292 cells, complete media
  Complete: 0.7258
[1]; [9]
  Difference: −0.43
[2]; [5]
  Complete Media: 1.58
[2]; [10]
  Difference: 0.17

## Oritavancin (diphosphate)
[1]; [11]
  Difference: −0.64
[1]; [12]
  Cholesterol-free: 1.626
[1]; [13]
  Complete: 0.9877
[2]; [14]
  Cholesterol-free media + simvastatin (0.04 μM): 1.021
[2]; [15]
  Complete Media: 0.8102
[2]; [16]
  Difference: −0.21

## Orphenadrine (citrate)
[1]; [3]
  Difference: −0.10
[1]; [4]
  Cholesterol-free: 0.8697
[1]; [5]
  Complete: 0.768
[2]; [5]
  Complete Media: 1.525
[2]; complete media minus cholesterol-free media + simvastatin, >0 enhanced anti-cancer activity, about 0 neutral, <0 antagonist
  Difference: 0.38

## Oseltamivir (phosphate)
[1]; [11]
  Difference: −0.16
[1]; [4]
  Cholesterol-free: 1.28
[1]; [5]
  Complete: 1.117
[2]; [17]
  Cholesterol-free media + simvastatin (0.04 μM): 0.8277
[2]; NCI-H292 cells, complete media, […]
  Complete Media: 0.8627
[2]; [10]
  Difference: 0.04

## Osimertinib (dimesylate)
[1]; [11]
  Difference: −0.05
[1]; [18]
  Cholesterol-free: 0.1916
[1]; [19]
  Complete: 0.1371
[2]; [6]
  Cholesterol-free media + simvastatin (0.04 μM): 0.4427
[2]; [5]
  Complete Media: 0.3618
[2]; [16]
  Difference: −0.08

## Osimertinib mesylate
[1]; [11]
  Difference: −0.14
[1]; [4]
  Cholesterol-free: 0.3436
[1]; [5]
  Complete: 0.1992
[2]; [6]
  Cholesterol-free media + simvastatin (0.04 μM): 0.3874
[2]; [5]
  Complete Media: 0.2672
[2]; [16]
  Difference: −0.12

## Oxaliplatin
[1]; [8]
  Cholesterol-free: 1.359
[1]; NCI-H292 cells, complete media
  Complete: 0.9211
[1]; [9]
  Difference: −0.44
[2]; [6]
  Cholesterol-free media + simvastatin (0.04 μM): 0.8725
[2]; [10]
  Difference: 0.17

## Oxeladin (citrate)
[1]; [11]
  Difference: −0.55
[1]; [12]
  Cholesterol-free: 1.475
[1]; [13]
  Complete: 0.921
[2]; [6]
  Cholesterol-free media + simvastatin (0.04 μM): 0.7029
[2]; [5]
  Complete Media: 1.466
[2]; [10]
  Difference: 0.76

## Oxolamine (citrate)
[1]
  Cholesterol-free: 1.162
  Complete: 0.9128
  Difference: −0.25
[2]
  Cholesterol-free media + simvastatin (0.04 μM): 0.8466
  Complete Media: 1.01
  Difference: 0.16

## Oxytocin (acetate)
[1]; [11]
  Difference: −0.16
[1]; [4]
  Cholesterol-free: 1.734
[1]; [5]
  Complete: 1.57
[2]; [17]
  Cholesterol-free media + simvastatin (0.04 μM): 0.9906
[2]; [10]
  Difference: 0.04

## Paromomycin (sulfate)
[1]; [18]
  Cholesterol-free: 0.541
[1]; [19]
  Complete: 1.15
[1]; [9]
  Difference: 0.61
[2]; [14]
  Cholesterol-free media + simvastatin (0.04 μM): 1.383
[2]; [15]
  Complete Media: 1.216
[2]; [16]
  Difference: −0.17

## Pasiniazid
[1]; [18]
  Cholesterol-free: 1.164
[1]; [19]
  Complete: 1.274
[1]; [9]
  Difference: 0.11
[2]; [6]
  Cholesterol-free media + simvastatin (0.04 μM): 1.047
[2]; [5]
  Complete Media: 1.325
[2]; [10]
  Difference: 0.28

## Pazufloxacin (mesylate)
[1]; Complete minus Cholesterol-free, >0 enhanced anti-cancer activity, about 0 neutral, <0 antagonist
  Difference: −0.28
[1]; [8]
  Cholesterol-free: 0.9858
[1]; NCI-H292 cells, complete media
  Complete: 0.7051
[2]; [20]
  Cholesterol-free media + simvastatin (0.04 μM): 0.9357
[2]; [21]
  Complete Media: 0.9248
[2]; [22]
  Difference: −0.01

## Pefloxacin (mesylate)
[1]; [8]
  Cholesterol-free: 1.183
[1]; NCI-H292 cells, complete media
  Complete: 0.8627
[1]; complete vs cholesterol-free media, greater than 0 enhanced anti-cancer activity, about 0 neutral, below 0 antagonists
  Difference: −0.32
[2]; [14]
  Cholesterol-free media + simvastatin (0.04 μM): 1.02
[2]; [15]
  Complete Media: 0.8577
[2]; [7]
  Difference: −0.16

## Penbutolol (sulfate)
[1]; [23]
  Difference: −0.71
[1]; [13]
  Complete: 1.219
[2]; [14]
  Cholesterol-free media + simvastatin (0.04 μM): 0.9562
[2]; [15]
  Complete Media: 0.7448
[2]; [7]
  Difference: −0.21

## Pergolide (mesylate)
[1]
  Cholesterol-free: 1.027
  Complete: 0.8214
  Difference: −0.21
[2]
  Cholesterol-free media + simvastatin (0.04 μM): 0.9579
  Complete Media: 1.079
  Difference: 0.12

## Pheniramine (Maleate)
[1]; [23]
  Difference: −0.65
[1]; [12]
  Cholesterol-free: 1.526
[1]; [13]
  Complete: 0.8791
[2]; [20]
  Cholesterol-free media + simvastatin (0.04 μM): 1.33
[2]; [21]
  Complete Media: 1.284
[2]; [22]
  Difference: −0.05
